Measurements published in patent publication US12435061B2 (priority 2020, dated 2025).
Where “and” joins values, the source holds several entries; their conditions need not be identical. Equal values may be shown once. Where a name gives a salt, the structure may show the parent alone. Read-outs that look alike come from different tables or passages of the source.

Target: hTRPV3 (Homo sapiens (Human), UniProt Q8NET8)
Test: Whole-cell patch clamp, hTRPV3 Phase 1 / Phase 2 currents
Assay type: cell-based
From the text: Whole-cell patch clamp experiments permit the detection of currents through the TRPV3 channel in the cell line described above. A glass electrode is brought into contact with a single cell and the membrane is then ruptured, permitting control of the voltage of the cell membrane and measurement of currents flowing across the membrane using the amplifier attached to the electrode. A perfusion system permits control of the extracellular solution, including the addition of blockers and activators of the current. The current can be activated by heating this solution to 28° C. or warmer or by addition of 20 μM 2-APB to the solution.
TRPV3 cells were induced 20-48 hours, removed from growth plates, and replated at low density (to attain good single-cell physical separation) on glass coverslips for measurement. In some cases, cells were grown in low density overnight on glass coverslips. Patch clamp recordings were made in the whole-cell mode with a holding potential of −40 mV. Every 5 seconds, a voltage ramp was applied from −120 to +100 mV, 400 ms in duration. Currents elicited were quantified at −80 mV and +80 mV. […] External solution was Ringer's solution described above.
P1 refers to the Phase 1 current for human (h) TRPV3, and P2 refers to the Phase 2 current for human (h) TRPV3.
In Tables 3 and 4, Phase 1 refers to Phase 1 current for human (h) TRPV3 or rat (r) TRPV3, and Phase 2 refers to Phase 2 current for human (h) TRPV3 or rat (r) TRPV3. The hTRPV3 and rTRPV3 assays were performed as described herein. hERG refers to the inhibition the human ERG (hERG) channel. NaV1.5, refers to the pore forming aL-subunit of the voltage-dependent cardiac Na(+) channel and is an integral membrane protein involved in the initiation and conduction of action potentials. hTRPV3 HAMA IC50 refers to the IC50 of TRPV3 cells stably expressed in TRex-293 cells. Solubility Ringer refers to the compounds' solubility in Ringer's solution. LM T1/2 refers to liver microsome half-lives in either rat or human liver microsomes. FLIPR IC50 refers to the IC50 of the test compounds against recombinant hTRPV3 cells.

[1] = Phase 1 current, inward, whole-cell patch clamp, read-out: hTRPV3 Patch P1 Inwd
[2] = Phase 2 current, inward, whole-cell patch clamp, read-out: hTRPV3 Patch P2 Inwd
[3] = Phase 1 current, human TRPV3, read-out: hTRPV3 (nM) Phase 1
[4] = Phase 1 current, read-out: hTRPV3 (nM) (Phase 1)
[5] = Phase 2 current, read-out: hTRPV3 (nM) (Phase 2)

Sequence of hTRPV3 (Q8NET8 whole entry): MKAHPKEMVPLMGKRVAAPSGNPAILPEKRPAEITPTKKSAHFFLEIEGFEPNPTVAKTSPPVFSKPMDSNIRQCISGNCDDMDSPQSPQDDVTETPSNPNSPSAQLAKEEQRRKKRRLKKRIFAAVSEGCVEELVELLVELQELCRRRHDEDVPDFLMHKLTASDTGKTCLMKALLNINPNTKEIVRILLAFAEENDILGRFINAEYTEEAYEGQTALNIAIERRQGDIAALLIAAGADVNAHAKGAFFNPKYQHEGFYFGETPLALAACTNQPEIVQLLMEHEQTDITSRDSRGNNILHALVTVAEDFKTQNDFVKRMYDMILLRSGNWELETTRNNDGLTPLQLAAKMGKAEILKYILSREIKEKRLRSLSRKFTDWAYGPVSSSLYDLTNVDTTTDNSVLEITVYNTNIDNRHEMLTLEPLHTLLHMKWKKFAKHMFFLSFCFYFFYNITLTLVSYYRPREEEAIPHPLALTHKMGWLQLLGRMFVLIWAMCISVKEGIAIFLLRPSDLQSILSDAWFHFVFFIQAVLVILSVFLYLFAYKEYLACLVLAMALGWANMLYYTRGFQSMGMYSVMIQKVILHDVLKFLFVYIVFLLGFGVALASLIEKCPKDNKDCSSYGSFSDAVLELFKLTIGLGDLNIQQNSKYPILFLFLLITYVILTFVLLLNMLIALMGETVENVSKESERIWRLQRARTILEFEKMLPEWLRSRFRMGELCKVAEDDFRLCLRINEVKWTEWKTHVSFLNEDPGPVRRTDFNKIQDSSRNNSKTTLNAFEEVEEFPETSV

Row | Molecule | IC50 [1] [nM] | IC50 [2] [nM] | further results
1 | 2-(1-o-tolylpyrrolidin-3-yloxy)-5-(trifluoromethyl)pyridine [Compound 1-1] | > 1000 | > 1000 | –
2 | 5-(2-isopropylphenoxy)-2-(1-(pyrazine-2-carbonyl)pyrrolidin-3-yl)benzamide [Compound 2-103] | > 1000 | – | IC50 [3]: ~5250 nM
3 | Cc1cccc(C(=O)c2ccc(C3CCN(C(=O)c4ncccc4Cl)C3)c(CO)c2)c1 (single isomer, unassigned) [Compound 2-3] | 10 to 100 | – | –
4 | Cc1cccc(C(O)c2ccc(C3CCN(C(=O)c4ncccc4Cl)C3)c(CO)c2)c1 (single isomer, unassigned) [Compound 2-8] | > 1000 | – | IC50 [3]: > 3200 nM
5 | CC(C)(C)NS(=O)(=O)c1cc(-c2ccccc2)ccc1N1CCC(Oc2ccc(C(F)(F)F)cn2)C1 (stereo in doubt) [Compound 1-96, (S)—N-tert-butyl-4-(3-(5-(trifluoromethyl)pyridin-2-yloxy)pyrrolidin-1-yl)biphenyl-3-sulfonamide] | > 1000 | > 1000 | IC50 [4]: > 3200 nM; IC50 [5]: > 3200 nM
6 | NC(=O)c1cc(-c2ccccc2)ccc1N1CC[C@H](Nc2ccc(C(F)(F)F)cn2)C1 (stereo in doubt) [Compound 1-375] | – | – | IC50 [4]: > 1000 nM and ~5500 nM; IC50 [5]: > 1000 nM and ~2850 nM
7 | N#Cc1ccccc1N1CCC(Oc2ccc(C(F)(F)F)cn2)C1 (stereo not shown) [Compound 1-5] | > 1000 | > 1000 | –
8 | N#Cc1ccccc1N1CC[C@@H](Oc2ccc(C(F)(F)F)cn2)C1 [Compound 1-9, (R)-2-(3-(5-(trifluoromethyl)pyridin-2-yloxy)pyrrolidin-1-yl)benzonitrile] | > 1000 | – | –
9 | N#Cc1ccccc1N1CC[C@H](Oc2ccc(C(F)(F)F)cn2)C1 [Compound 1-11, (S)-2-(3-(5-(trifluoromethyl)pyridin-2-yloxy)pyrrolidin-1-yl)benzonitrile] | > 1000 | – | –
10 | NCc1ccccc1N1CC[C@H](Oc2ccc(C(F)(F)F)cn2)C1 [Compound 1-13, (S)-(2-(3-(5-(trifluoromethyl)pyridin-2-yloxy)pyrrolidin-1-yl)phenyl)methanamine HCl salt] | > 1000 | > 1000 | –
11 | CC(C)Oc1ccccc1N1CC[C@H](Oc2ccc(C(F)(F)F)cn2)C1 [Compound 1-15, (S)-2-(1-(2-isopropoxyphenyl)pyrrolidin-3-yloxy)-5-(trifluoromethyl)pyridine] | > 1000 | > 1000 | –
12 | NCc1ccccc1N1CC[C@@H](Oc2ccc(C(F)(F)F)cn2)C1 [Compound 1-20, (R)-(2-(3-(5-(trifluoromethyl)pyridin-2-yloxy)pyrrolidin-1-yl)phenyl)methanamine] | > 1000 | > 1000 | –
13 | N#Cc1ccc(N2CC[C@H](Oc3ccc(C(F)(F)F)cn3)C2)c(C(N)=O)c1 [Compound 1-23, (S)-5-cyano-2-(3-(5-(trifluoromethyl)pyridin-2-yloxy)pyrrolidin-1-yl)benzamide] | > 1000 | – | –
14 | O=C(O)c1ccccc1N1CC[C@H](Oc2ccc(C(F)(F)F)cn2)C1 [Compound 1-24, (S)-2-(3-(5-(trifluoromethyl)pyridin-2-yloxy)pyrrolidin-1-yl)benzoic acid] | > 1000 | – | –
15 | FC(F)(F)c1ccc(O[C@H]2CCN(c3ccccc3OC3CCCC3)C2)nc1 [Compound 1-25, (S)-2-(1-(2-(cyclopentyloxy)phenyl)pyrrolidin-3-yloxy)-5-(trifluoromethyl)pyridine] | > 1000 | – | –
16 | FC(F)(F)c1ccc(O[C@H]2CCN(c3ccccc3OCc3ccccc3)C2)nc1 [Compound 1-26, (S)-2-(1-(2-(benzyloxy)phenyl)pyrrolidin-3-yloxy)-5-(trifluoromethyl)pyridine] | > 1000 | – | –
17 | N#Cc1ccc(N2CC[C@@H](Oc3ccc(C(F)(F)F)cn3)C2)c(C(N)=O)c1 [Compound 1-34, (R)-5-cyano-2-(3-(5-(trifluoromethyl)pyridin-2-yloxy)pyrrolidin-1-yl)benzamide] | > 1000 | – | –
18 | NCc1ccc(N2CC[C@H](Oc3ccc(C(F)(F)F)cn3)C2)c(C(N)=O)c1 [Compound 1-35] | > 1000 | – | –

Row | Molecule | IC50 [1] [nM] | IC50 [2] [nM] | further results
19 | FC(F)(F)c1ccc(O[C@@H]2CCN(c3ccccc3OC3CCCC3)C2)nc1 [Compound 1-36, (R)-2-(1-(2-(cyclopentyloxy)phenyl)pyrrolidin-3-yloxy)-5-(trifluoromethyl)pyridine] | > 1000 | – | –
20 | CC(C)Oc1ccccc1N1CC[C@@H](Oc2ccc(C(F)(F)F)cn2)C1 [Compound 1-37, (R)-2-(1-(2-isopropoxyphenyl)pyrrolidin-3-yloxy)-5-(trifluoromethyl)pyridine] | > 1000 | – | –
21 | FC(F)(F)c1ccc(O[C@@H]2CCN(c3ccccc3OCc3ccccc3)C2)nc1 [Compound 1-38, (R)-2-(1-(2-(benzyloxy)phenyl)pyrrolidin-3-yloxy)-5-(trifluoromethyl)pyridine] | > 1000 | – | –
22 | CNC(=O)c1ccccc1N1CC[C@H](Oc2ccc(C(F)(F)F)cn2)C1 [Compound 1-39, (S)—N-methyl-2-(3-(5-(trifluoromethyl)pyridin-2-yloxy)pyrrolidin-1-yl)benzamide] | > 1000 | – | –
23 | O=C(O)c1ccccc1N1CC[C@@H](Oc2ccc(C(F)(F)F)cn2)C1 [Compound 1-41, (R)-2-(3-(5-(trifluoromethyl)pyridin-2-yloxy)pyrrolidin-1-yl)benzoic acid] | > 1000 | > 1000 | –
24 | NCc1ccc(N2CC[C@@H](Oc3ccc(C(F)(F)F)cn3)C2)c(C(N)=O)c1 [Compound 1-45] | > 1000 | – | –
25 | CC(C)NC(=O)c1ccccc1N1CC[C@H](Oc2ccc(C(F)(F)F)cn2)C1 [Compound 1-46, (S)—N-isopropyl-2-(3-(5-(trifluoromethyl)pyridin-2-yloxy)pyrrolidin-1-yl)benzamide] | > 1000 | – | –
26 | CNC(=O)c1ccccc1N1CC[C@@H](Oc2ccc(C(F)(F)F)cn2)C1 [Compound 1-47, (R)—N-methyl-2-(3-(5-(trifluoromethyl)pyridin-2-yloxy)pyrrolidin-1-yl)benzamide] | > 1000 | – | –
27 | CC(C)NC(=O)c1ccccc1N1CC[C@@H](Oc2ccc(C(F)(F)F)cn2)C1 [Compound 1-49, (R)—N-isopropyl-2-(3-(5-(trifluoromethyl)pyridin-2-yloxy)pyrrolidin-1-yl)benzamide] | > 1000 | – | –
28 | O=C(NCc1ccccc1)c1ccccc1N1CC[C@@H](Oc2ccc(C(F)(F)F)cn2)C1 [Compound 1-50, (R)—N-benzyl-2-(3-(5-(trifluoromethyl)pyridin-2-yloxy)pyrrolidin-1-yl)benzamide] | > 1000 | > 1000 | –
29 | O=C(NCc1ccccc1)c1ccccc1N1CC[C@H](Oc2ccc(C(F)(F)F)cn2)C1 [Compound 1-51, (S)—N-benzyl-2-(3-(5-(trifluoromethyl)pyridin-2-yloxy)pyrrolidin-1-yl)benzamide] | – | > 1000 | –
30 | O=C(c1ccccc1N1CC[C@H](Oc2ccc(C(F)(F)F)cn2)C1)N(Cc1ccccc1)Cc1ccccc1 [Compound 1-52, (S)—N,N-dibenzyl-2-(3-(5-(trifluoromethyl)pyridin-2-yloxy)pyrrolidin-1-yl)benzamide] | > 1000 | – | –
31 | O=C(c1ccccc1N1CC[C@@H](Oc2ccc(C(F)(F)F)cn2)C1)N(Cc1ccccc1)Cc1ccccc1 [Compound 1-53, (R)—N,N-dibenzyl-2-(3-(5-(trifluoromethyl)pyridin-2-yloxy)pyrrolidin-1-yl)benzamide] | > 1000 | – | –
32 | CC(C)(C)OC(=O)c1ccccc1N1CC[C@H](Oc2ccc(C(F)(F)F)cn2)C1 [Compound 1-54, (S)-tert-butyl 2-(3-(5-(trifluoromethyl)pyridin-2-yloxy)pyrrolidin-1-yl)benzoate] | > 1000 | – | –
33 | CC(C)(C)OC(=O)c1ccccc1N1CC[C@@H](Oc2ccc(C(F)(F)F)cn2)C1 [Compound 1-55, (R)-tert-butyl 2-(3-(5-(trifluoromethyl)pyridin-2-yloxy)pyrrolidin-1-yl)benzoate] | > 1000 | > 1000 | –
34 | CN(C)Cc1ccccc1N1CC[C@@H](Oc2ccc(C(F)(F)F)cn2)C1 [Compound 1-60, (R)—N,N-dimethyl-1-(2-(3-(5-(trifluoromethyl)pyridin-2-yloxy)pyrrolidin-1-yl)phenyl) methanamine hydrochloride] | > 1000 | > 1000 | –
35 | CN(C)Cc1ccccc1N1CC[C@H](Oc2ccc(C(F)(F)F)cn2)C1 [Compound 1-61, (S)—N,N-dimethyl-1-(2-(3-(5-(trifluoromethyl)pyridin-2-yloxy)pyrrolidin-1-yl)phenyl) methanamine hydrochloride] | > 1000 | – | –
36 | N#Cc1ccc(-c2ccccc2)cc1N1CC[C@H](Oc2ccc(C(F)(F)F)cn2)C1 [Compound 1-62, (S)-3-(3-(5-(trifluoromethyl)pyridin-2-yloxy)pyrrolidin-1-yl)biphenyl-4-carbonitrile] | > 1000 | > 1000 | –
